# Assays:
# [1] = system: Mannitol dehydrogenase from Thermotoga maritima (TmMtDH); test: Cyclic voltammetry of the Gly-TBO-PEI-NADH-TmMtDH-modified electrode with sugar substrates (calibration plot, saturation current, turnover); format: biochemical; conditions: substrate tested on Gly-TBO-PEI-NADH-TmMtDH-modified electrode; 100 mM PBS pH 6.0, 60° C.
# Protocol: Cyclic voltammetric experiments were conducted by sweeping the potential of the working electrode between 200 mV and −600 mV at a scan rate of 100 mV s^−1, causing fructose in the vicinity of the electrode to be reduced to mannitol in the […] direction and mannitol to be oxidized to fructose in the reverse direction. All electrochemical measurements were made in 100 mM PBS (pH 6.0) at 60° C. using an electrode with a controlled surface area of 0.07 cm^2. The slope of the calibration plot, which depicts peak current vs. concentration, is a measure of the biosensor's sensitivity. The maximum turnover rate (TRmax), which corresponds to the number of fructose molecules reduced per TmMtDH molecule per second, was calculated using Eq. 6 (Eisenwiener and Schulz, 1969):
# [formula] where the background current (I0) and saturation current (Icat^sat) are given by the y-intercept of the calibration curve and the plateau current at a given concentration, respectively. Electrochemical Impedance Spectroscopy
# The slope of the calibration curve (0.70±0.01 μA) mM^−1 cm^−2) is a measure of the biosensor's sensitivity. At higher concentrations, the anodic current reached a saturation value (Icat^sat=740.9±11.6 μA cm^−2). This value was used to calculate a TRmax, which represents the number of molecules of fructose reduction per TmMtDH molecule per second, of 57.5±2.8 s^−1, using Eq. 6 (Eisenwiener and Schulz, 1969).
# The selectivity of the Gly-TBO-PEI-NADH-TmMtDH-modified electrode was examined by testing alternative substrates.
# [2] = carboxylic acid group; cited from earlier work
SMILES,Icat^sat [1] [μA cm^−2],Sensitivity [1] [μA mM^−1 cm^−2],pKa [2]
"OC1COC(O)C(O)C1O (centres unmarked) [Arbinose, arbinose]",542.8 ± 9.1,0.3 ± 0.0,
"O=C(CO)[C@@H](O)[C@H](O)[C@H](O)CO [Fructose, D-fructose]",748.2 ± 11.7,10.1 ± 0.2,
"NCC(=O)O [Gly, Glycine]",,,~4.3
O=C(O)CCS [MPA],,,~4.3
"O=C(CO)[C@H](O)[C@@H](O)[C@H](O)CO [Sorbose, sorbose]",562.4 ± 1.4,0.4 ± 0.0,
